Experimental data from US20060263340A1, “Treating gastrointestinal diseases with modulators of retinoic acid” (priority 2005, published 2006).

Experiments:
B cells = experiment: In vivo homing of B cells activated with anti-IgM antibody in the presence or absence of retinoic acid; design: species or system mouse
Method: FIG. 16 illustrates the effect of retinoic acid (RA) in the homing potential of B cells activated with an anti IgM antibody. Mouse spleen B cells are activated with an anti-IgM antibody, either with or without RA, and in the presence of non-intestinal dendritic cells (D1-DC) to improve the effector B cell viability. After 4 days in culture, naïve, B220^+ and B220^Neg (plasmablasts) effector B cells are assayed for (A) α4β7 (MFI: mean fluorescence intensity). (B) CCR9, and (C-D) migration of B cells activated in the presence or the absence of RA. […] In addition, most of the cells localizing in the small bowel mucosa are B220^Low/Neg (plasmablasts). (D) Bar graphs showing the mean±SE of 2 independent experiments. The homing indices (HI) indicate how much more (or less) B cells activated in the presence of RA migrate with respect to those activated without RA in a given tissue (HI=1 means no difference). […]
Dendritic cells treated with retinoic acid (RA) as described in FIGS. 3-6, or gut derived DC (e.g. mobilized from Peyer's patches or mesenteric lymph nodes), or RA itself (see FIG. 15) can be used to activate naive or effector/memory T and/or B cells. […] After 4-5 days, the resulting effector T and/or B cells are analyzed for their expression of gut or skin homing molecules and migratory behavior (see FIG. 16).

T cells = experiment: In vivo migration of T cells activated with D1-DC pretreated with RA; conditions: T cells activated with D1-DC pretreated with RA for 3 days, injected into mice; average of two independent experiments (FIG. 19B)

SMILES: CC1=C(/C=C/C(C)=C/C=C/C(C)=C/C(=O)O)C(C)(C)CCC1 [RA, retinoic acid]
- migration of B cells into the small bowel lamina propria as compared to those activated without RA (homing index) (B cells; average of 2 independent experiments (FIG. 16D)): more than 10 times
- localization of B cells in the small bowel lamina propria as compared to B cells activated without RA (B cells; mouse spleen B cells activated with anti-IgM with RA, in presence of D1-DC, representative homing experiment (FIG. 16C)): 24 times
- migration of T cells to the intestinal mucosa as compared to those activated with control D1-DC (T cells): 200 times
